Data reported in US8637557B2, “Aminothiazole derivative” (Taisho Pharmaceutical Co., Ltd, priority 2009, dated 2014).
pIC50: −log10 of the molar value.

Target: T1, human PI 3-kinase p120γ (Homo sapiens, UniProt P48736)
T1 construct: purchased Millipore Corporation
Test: PI 3-kinase p120γ enzyme activity inhibition test
Assay type: biochemical
Conditions: ATP 10.0 μM, PIP2-PS 5.0 μM, 30° C., 2 hours; read-out: PI3Kγ (IC50 value class)
Protocol: Using human PI 3-kinase p120γ (manufactured by Millipore Corporation) and a mixed micellized product (hereinafter abbreviated as PIP2-PS) of the substrate thereof, L-a-Phosphatidyl-D-myo-inositol-4,5-bisphosphate (product of Calbiochem, hereinafter abbreviated as PIP2), and L-a-Phosphatidyl-L-Serine (manufactured by Sigma, hereinafter abbreviated as PS), the compound of the present invention was examined for the inhibitory action on PI3 Kinase p120γ enzyme activity (Km=8.9 μM for ATP, Km=4.0 μM for PIP2-PS).
PIP2-PS was prepared by mixing 500 μM of PIP2 and 2.5 nM of PS and sonicating the mixture for 40 minutes while ice cooling to cause micellization. ATP (final concentration 10.0 μM), [γ-^33P] ATP (final concentration 10 μCi/ml), PIP2-PS (final concentration 5.0 μM) and DMSO solutions of the test compound in different concentrations (compound final concentration 1.0×10^−5 to 2.4×10^−12 M, DMSO final concentration 0.1%) were added to PI 3-kinase p120γ, stirred and reacted at 30° C. for 2 hours. Using Phospholipid-Coated FlashPlate Microplates, 96-Well and Phospholipid FlashPlate Coating Buffer (both manufactured by PerkinElmer Co., Ltd.), PIP2-PS and phosphorylated PIP2-PS were allowed to be adsorbed to the well wall of the plate and collected. The well was washed twice with PBS (Phosphate-Buffered Saline) and dried. The radioactivity was measured using Top Count NXT (manufactured by PerkinElmer Co., Ltd.), whereby the phosphorylated amount (a) of PIP2-PS at the time of compound addition was calculated.
The same procedure was carried out in the absence of the test compound and the phosphorylated amount (b) of PIP2-PS was calculated. Further, the same procedure was carried out in the absence of both of the substrate and the test compound, and the PIP2-PS phosphorylated amount (c) of the background was calculated.
The PI3 Kinase p120γ enzyme activity suppression rate of the compound was calculated by the following formula. Suppression rate (%)=[1−(a−c)/(b−c)]×100
More specifically, using the suppression rate by the test compound of different concentrations, the IC50 value was calculated according to the dose-dependent inhibition curve analyzed by a data analysis software Origin (Lightstone Corp.) and used as the inhibitory activity index.

T1 sequence (P48736 whole entry): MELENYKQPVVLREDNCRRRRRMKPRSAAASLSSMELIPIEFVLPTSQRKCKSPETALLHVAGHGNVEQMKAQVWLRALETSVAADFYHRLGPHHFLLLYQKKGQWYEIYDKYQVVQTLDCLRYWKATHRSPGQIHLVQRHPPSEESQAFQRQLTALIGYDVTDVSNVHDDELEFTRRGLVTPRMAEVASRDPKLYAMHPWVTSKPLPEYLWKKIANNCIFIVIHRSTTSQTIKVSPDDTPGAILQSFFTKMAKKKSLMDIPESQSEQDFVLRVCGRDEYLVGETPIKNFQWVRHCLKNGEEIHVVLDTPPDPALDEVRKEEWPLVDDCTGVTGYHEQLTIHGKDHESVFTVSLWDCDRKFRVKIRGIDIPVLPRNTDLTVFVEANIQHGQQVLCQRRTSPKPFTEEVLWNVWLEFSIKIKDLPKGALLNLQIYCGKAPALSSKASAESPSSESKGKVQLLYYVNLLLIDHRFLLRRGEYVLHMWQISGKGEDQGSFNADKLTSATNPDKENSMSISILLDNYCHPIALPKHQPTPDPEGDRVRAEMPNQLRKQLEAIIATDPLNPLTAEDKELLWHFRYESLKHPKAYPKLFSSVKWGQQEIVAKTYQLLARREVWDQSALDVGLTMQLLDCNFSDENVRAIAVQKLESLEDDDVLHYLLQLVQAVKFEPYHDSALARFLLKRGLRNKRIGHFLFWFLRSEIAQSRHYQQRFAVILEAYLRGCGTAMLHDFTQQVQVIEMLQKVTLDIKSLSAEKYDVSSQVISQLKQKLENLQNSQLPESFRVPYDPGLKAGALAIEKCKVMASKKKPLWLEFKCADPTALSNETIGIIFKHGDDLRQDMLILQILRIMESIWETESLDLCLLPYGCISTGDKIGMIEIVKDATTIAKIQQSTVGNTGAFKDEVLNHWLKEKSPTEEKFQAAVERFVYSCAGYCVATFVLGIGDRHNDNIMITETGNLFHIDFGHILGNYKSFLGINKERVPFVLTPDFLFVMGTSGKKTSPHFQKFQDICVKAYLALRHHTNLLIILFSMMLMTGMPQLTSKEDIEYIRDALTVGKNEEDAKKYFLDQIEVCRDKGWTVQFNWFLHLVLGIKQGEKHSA

| pIC50 | Structure (SMILES) |
| --- | --- |
| > 7.00 | Cc1nc(NC(=O)NCCCN2CCOCC2)sc1-c1nc(-c2cccnc2)no1 [Example 142] |
| > 7.00 | CCOC(=O)CC(C)NC(=O)Nc1nc(C)c(-c2nc(-c3cccnc3)no2)s1 (stereo not drawn) [Example 143] |
| > 7.00 | CCOC(=O)[C@H]1CCCC1NC(=O)Nc1nc(C)c(-c2nc(-c3cccnc3)no2)s1 (stereo partly drawn) [Example 144] |
| > 7.00 | Cc1nc(NC(=O)NCCC(=O)N2CCOCC2)sc1-c1nc(-c2cccnc2)no1 [Example 145] |
| > 7.00 | Cc1nc(N)sc1-c1nc(CC(F)(F)F)no1 [Example 146] |
| > 7.00 | Cc1nc(NC(=O)NCCC(=O)OC(C)(C)C)sc1-c1nc(CC(F)(F)F)no1 [Example 147] |
| > 7.00 | Cc1nc(NC(=O)NCCCNC(C)(C)C)sc1-c1nc(-c2cccnc2)no1 [Example 148] |
| > 7.00 | Cc1nc(NC(=O)NCCC(=O)NC(C)(C)CO)sc1-c1nc(-c2cccnc2)no1 [Example 149] |
| > 7.00 | Cc1nc(NC(=O)NCCC(=O)N2CCC(O)CC2)sc1-c1nc(-c2cccnc2)no1 [Example 150] |
| > 7.00 | Cc1nc(NC(=O)NCCC(=O)OCCO)sc1-c1nc(-c2cccnc2)no1 [Example 151] |
| > 7.00 | Cc1nc(NC(=O)NCCC(=O)NC(C)(CO)CO)sc1-c1nc(-c2cccnc2)no1 [Example 152] |
| > 7.00 | Cc1nc(NC(=O)NCCC(=O)OC(C)(C)C)sc1-c1nc(C2CCCCC2)no1 [Example 153] |
| > 7.00 | COCCc1noc(-c2sc(NC(=O)NCCC(=O)OC(C)(C)C)nc2C)n1 [Example 154] |
| > 7.00 | Cc1nc(N)sc1-c1nc(CC(C)(C)CO)no1 [Example 156] |
| > 7.00 | Cc1nc(NC(=O)NCCC(=O)OC(C)(C)C)sc1-c1nc(CC(C)(C)CO)no1 [Example 157] |
| > 7.00 | CCOC(=O)Nc1nc(C)c(-c2nc(CC(C)(C)CO)no2)s1 [Example 158] |
| > 7.00 | Cc1nc(NC(=O)NCCCN2CCCC2=O)sc1-c1nc(CC(C)(C)CO)no1 [Example 159] |

| pIC50 | Structure (SMILES) |
| --- | --- |
| > 7.00 | Cc1nc(NC(=O)NCCCOC(C)(C)C)sc1-c1nc(CC(C)(C)CO)no1 [Example 160] |
| > 7.00 | Cc1nc(NC(=O)NCCC(=O)NC(C)(C)C)sc1-c1nc(CC(C)(C)CO)no1 [Example 161] |
| > 7.00 | Cc1nc(NC(=O)NCCc2cn(C(C)C)cn2)sc1-c1nc(CC(C)(C)CO)no1 [Example 162] |
| 6.30 to 7.00 | Cc1nc(NC(=O)CCNC(=O)OC(C)(C)C)sc1-c1nc(CC(C)(C)CO)no1 [Example 163] |
| > 7.00 | Cc1nc(NC(=O)NCCC(=O)NC(C)(CO)CO)sc1-c1nc(CC(F)(F)F)no1 [Example 164] |
| > 7.00 | Cc1nc(NC(=O)NCCC(=O)N2CCC(O)CC2)sc1-c1nc(CC(F)(F)F)no1 [Example 166] |
| > 7.00 | COCCNC(=O)CCNC(=O)Nc1nc(C)c(-c2nc(CC(F)(F)F)no2)s1 [Example 167] |
| 6.30 to 7.00 | Cc1nc(NC(=O)NCCC(=O)N2CCN(C(=O)OC(C)(C)C)CC2)sc1-c1nc(CC(F)(F)F)no1 [Example 168] |
| > 7.00 | Cc1nc(NC(=O)NCCC(=O)N2CCNCC2)sc1-c1nc(CC(F)(F)F)no1 [Example 169] |
| > 7.00 | Cc1nc(NC(=O)NCCC(=O)OC(C)(C)C)sc1-c1nc(CC(C)(C)O)no1 [Example 170] |
| > 7.00 | Cc1nc(NC(=O)NCCc2ccccn2)sc1-c1nc(-c2cccnc2)no1 [Example 171] |
| > 7.00 | CCn1cnc(CCNC(=O)Nc2nc(C)c(-c3nc(-c4cccnc4)no3)s2)c1 [Example 172] |
| > 7.00 | COCC(=O)Nc1nc(C)c(-c2nc(-c3cccc(CO)c3)no2)s1 [Example 173] |
| > 7.00 | Cc1nc(NC(=O)NCC(C)O)sc1-c1nc(-c2cccc(O)c2)no1 (stereo not drawn) [Example 174] |
| > 7.00 | Cc1nc(NC(=O)NCC(C)O)sc1-c1nc(-c2cccnc2)no1 (stereo not drawn) [Example 175] |
| > 7.00 | Cc1nc(NC(=O)NCC(C)O)sc1-c1nc(-c2cncnc2)no1 (stereo not drawn) [Example 176] |
